Reference: patent publication US11331294B2, “Benzoquinone derivative E3330 in combination with chemotherapeutic agents for the treatment of bladder cancer” (Indiana University Research and Technology Corporation, priority 2007, dated 2022)

How the values were obtained:
T24 cells = experiment: Methylene blue cell growth assay T24; format: cell-based; settings: Homo sapiens, T-24, read-out: cell growth-inhibitory IC50
Method: (§1) FIGS. 31A & 31B. Treatment with APE1/Ref-1 inhibitors potently blocks bladder cancer cell proliferation and activated Caspase 3/7. […] The IC50 values for FIG. 31A were determined using the methylene blue assay, n=4. […] T24 and UC3 cells were treated with APX2009 and APX2014 at the IC50 and IC90 and monitored over time for activation of capsase 3/7 by an increase in red fluorescence. Time course graphs are shown in FIG. 31B and representative images at 48 hr are shown in FIG. 32A (described more fully below), n=3-4.
(§2) FIGS. 36A-36H. […] In cytokine-induced T24 and UC3 cells NFκB-driven luciferase (FIG. 36A), STAT3-driven luciferase (FIG. 36B), and AP-1-driven luciferase (FIG. 36C) were quantified and normalized via Renilla following treatment with the corresponding cell growth-inhibitory IC50 concentrations. T24 cells were treated with APX2009 (8.5 μM) and APX2014 (6.5 μM), and UC3 cells were treated with APX2009 (6.1 μM) and APX2014 (4.6 μM) for 24 h. (*-p<0.05 APX treated vs vehicle, n=4). […] In the panels of FIGS. 36F & 36G, co-expression of survivin and APE1/Ref-1 was analyzed in superficial (FIG. 36F) and invasive human bladder tumors (FIG. 36G) in patients, and found nearly universal overlap of positivity in both in human samples. This was also true in cisplatin-refractory patients from the tissue microarray specimens (FIG. 36H). […]

UC3 cells = experiment: Methylene blue cell growth assay UC3; format: cell-based; settings: Homo sapiens, read-out: cell growth-inhibitory IC50
Method: as §1, §2

[1] = tested on: SW780, T24, UC3 cell lines; experiment: Methylene blue cell growth assay, bladder cancer cell panel; format: cell-based, human
Method: as §1
Bladder cancer cell proliferation was inhibited and apoptosis was induced by potent, selective redox inhibitors of APE1/Ref-1.

bladder cancer cells = experiment: BrdU incorporation assay in cultured cells; format: cell-based; settings: IC50 concentration, 24 hours; control 11.2%±0.84
Method: To determine the proliferation rate of cells in response to APE1/Ref-1 redox inhibitors, cells were grown in the culture conditions described above and treated with inhibitors as described above, in chamber slides. After 24 hours in culture with inhibitors or vehicle, all cells were treated with 3.1 μg/ml BrdU (in sterile PBS; 0.1%) for one hour. Cells were fixed and permeablized with 4% paraformaldehyde and stained for BrdU incorporation with the antibody and methodology described in the Roche BrdU labeling Kit, (Risch-Rotkreuz, Switzerland), using secondary antibodies. Positive cells were captured on a Leica 6000 fluorescent microscope and were quantified relative to Hoechst positive nuclei (total live cells).
To further characterize this effect, it was analyzed whether this reduced cell number was due to decreases in proliferation, increases in apoptosis, or both.

UC3 and T24 cells = experiment: Incucyte caspase-3/7 apoptosis assay; format: cell-based, human; settings: red fluorescence over time
Method: UC3 and T24 cells were plated in 96-well plates at 3,500 cell/well and allowed to attach overnight. Increasing amounts of APX2009 or APX2014 were added to each well along with 1 μM of the caspase reagent (Caspase-3/7 Red, Essen Bioscience) and then the cells were allowed to recover for 2 hours prior to beginning imaging with the Incucyte system (Essen Bioscience). Each well was imaged for phase contrast as well as red fluorescence every 2 hours for 96 hours. The Incucyte software generated movies of the cells following treatment as well as real-time imaging data with red fluorescence normalized to the percent confluency of the well.
To assay for caspase-3/7 mediated apoptosis, the increase in red fluorescence was analyzed over time following the addition of APX2009 and APX2014.

[2] = tested on: RP-B-01, RP-B-02 and T24 cell lines; experiment: Alamar blue combination study with cisplatin; format: cell-based, human; settings: combined with increasing concentrations of cisplatin, 72 h
Method: FIGS. 30A-30C. […] RP-B-01, RP-B-02, and T24 cell lines were treated with increasing concentrations of cisplatin in combination with a single dose of either APX2009 or APX2014 as indicated (n=3±SE). Cell proliferation was normalized to Saline control and expressed as Fold Change. Combination index (CI) values calculated with Compusyn for combination of APX inhibitors and cisplatin. CI values indicated mainly additivity (0.95-1.2) to synergy (0.8-0.94).
Bladder cancer cell lines (BLCAb001 (RP-B-01) and BLCAb002 (RP-B-02) maintained in RPMI growth medium with 10% FBS were plated at 4,000 cells/well in poly-D-lysine treated 96-well clear bottom black plates and grown overnight in 5% CO2 at 37° C. Cells in monolayer were then treated with increasing concentrations of redox-specific inhibitor APX3330, APX2014 or APX2009 and serially diluted 1:2 in a 5-point dose scheme. For combination studies, cells were treated with both cisplatin and APX compounds to determine efficacy. After 72 hours, fresh RPMI medium with 5% FBS was exchanged, and a fluorescent metabolic indicator, Alamar Blue was added to each well at 10% final concentration. After a 4 hour incubation, plates were read on a Synergy H4 (Bio-Tek) plate reader. […]
APE1/Ref-1 inhibition enhances cisplatin's therapeutic effect. […] Cell proliferation was assessed using Alamar blue 72 h after drug treatment.

RP-B-01 spheroids = experiment: 3D spheroid growth assay RP-B-01; format: cell-based, human; settings: p<0.01
Source text: (§3) RP-B-01 and RP-B-02 cells were resuspended in normal growth media containing 3% Reduced Growth Factor Matrigel (BD Biosciences) at a cell density of 1,500 and 3,000 cells/well, respectively and plated in ultra-low adherence 96-well plates (Corning).
(§4) Spheroids were allowed to form and then treated on days 4, 8, and 12 following plating with media containing 5% serum, 3% Reduced Growth Factor Matrigel, and APE1/Ref-1 inhibitors. Vehicle control, DMSO, was less than 0.01% of the volume, and was equivalent in each well. On Day 15, Alamar blue reagent (LifeTechnologies) was added to each well (10 μL/well) and incubated for 24 hours.
(§5) In order to mimic tumor growth more accurately in a relevant microenvironment and in a more robust model for predicting response to treatment, a three-dimensional (3D) culture model of patient-derived RP-B-01 and RP-B-02 bladder cancer cells was used. Both RP-B-01 and RP-B-02 cell lines are transitional cell carcinoma staged as T4bN1Mx and T2bN0Mx Grade III tumors, respectively.

RP-B-02 spheroids = experiment: 3D spheroid growth assay RP-B-02; format: cell-based, human; settings: p<0.05
Source text: as §3, §4, §5

NFκB = experiment: NFκB-driven luciferase reporter; format: cell-based, human; settings: T24 and UC3 cells, IC50 concentration, 24 h
Method: (§6) FIGS. 36A-36H. […] In cytokine-induced T24 and UC3 cells NFκB-driven luciferase (FIG. 36A), STAT3-driven luciferase (FIG. 36B), and AP-1-driven luciferase (FIG. 36C) were quantified and normalized via Renilla following treatment with the corresponding cell growth-inhibitory IC50 concentrations. T24 cells were treated with APX2009 (8.5 μM) and APX2014 (6.5 μM), and UC3 cells were treated with APX2009 (6.1 μM) and APX2014 (4.6 μM) for 24 h. (*-p<0.05 APX treated vs vehicle, n=4). […] In the panels of FIGS. 36F & 36G, co-expression of survivin and APE1/Ref-1 was analyzed in superficial (FIG. 36F) and invasive human bladder tumors (FIG. 36G) in patients, and found nearly universal overlap of positivity in both in human samples. This was also true in cisplatin-refractory patients from the tissue microarray specimens (FIG. 36H).
(§7) The transcriptional activity of NFκB, STAT3, and AP-1 is under redox control by APE1/Ref-1. Therefore, NFκB, STAT3, or AP-1 transcriptional activity was quantified following treatment with APE1/Ref-1 redox inhibitors (FIGS. 36A-36C).

STAT3 = experiment: STAT3-driven luciferase reporter; format: cell-based, human; settings: T24 and UC3 cells induced with IL-6, IC50 concentration, 24 h
Method: as §6, §7

survivin and Cyclin D1 = experiment: Western blot of survival and proliferation proteins in cells; format: cell-based, human; settings: immunoblot
Method: as §6
Whole cell extracts were prepared using RIPA (radioimmunoprecipitation) buffer containing protein inhibitors (1:100 PMSF, 1:100 orthovanadate and 1:100 protease inhibitor). Total protein concentration was determined via Lowry or BCA assay. 10-50 μg/well of each lysate was separated by SDS-PAGE using a 12% SDS-polyacrylamide gel. Blots were blocked with 5% nonfat dry milk in 1×TBS for 1 h and incubated overnight with primary antibodies to either APE1/Ref-1 (1:1000 dilution, Novus, NB-100-116), survivin (1:1000, Cell Signaling), Cyclin D1 (1:500, Abcam), PARP-1 (1:1000, Cell Signaling) or GAPDH (1:5000, Cell Signaling). After blots were washed three-six times with TBS-Tween, blots were incubated with HRP-conjugated secondary mouse antibodies (1:5000, Pierce). After washing three-six times with TBS-Tween, blots were visualized by enhanced chemiluminescence (West Pico/West Femto, Pierce).
For further confirmation of a decrease in NFκB and STAT3 transcriptional activity, levels of survivin and Cyclin D1 were examined Both survivin and Cyclin D1 are known to be downstream targets of NFκB and STAT3. […] However, unlike APE1/Ref-1, survivin expression was primarily nuclear in both urothelial confined and invasive lesions.

RP-B-01 cells = experiment: Alamar blue monolayer assay RP-B-01; format: cell-based, human
Method: (§8) Bladder cancer cell lines (BLCAb001 (RP-B-01) and BLCAb002 (RP-B-02) maintained in RPMI growth medium with 10% FBS were plated at 4,000 cells/well in poly-D-lysine treated 96-well clear bottom black plates and grown overnight in 5% CO2 at 37° C. Cells in monolayer were then treated with increasing concentrations of redox-specific inhibitor APX3330, APX2014 or APX2009 and serially diluted 1:2 in a 5-point dose scheme. For combination studies, cells were treated with both cisplatin and APX compounds to determine efficacy. After 72 hours, fresh RPMI medium with 5% FBS was exchanged, and a fluorescent metabolic indicator, Alamar Blue was added to each well at 10% final concentration. After a 4 hour incubation, plates were read on a Synergy H4 (Bio-Tek) plate reader. For each drug dose, background was subtracted and then further normalized to media alone.
(§9) APE1/Ref-1 inhibition enhances cisplatin's therapeutic effect. Cisplatin is the standard of care for bladder cancer, but many patients' tumors are refractory to this therapy. […] To determine this, PDX lines, RP-B-01 and RP-B-02, as well as established cell line, T24, were treated with increasing concentrations of cisplatin in combination with APX compounds (FIGS. 30A-30C). Cell proliferation was assessed using Alamar blue 72 h after drug treatment.

RP-B-02 cells = experiment: Alamar blue monolayer assay RP-B-02; format: cell-based, human; settings: 72 h
Method: as §8, §9

endothelial cells = experiment: In vitro tube formation assay; format: cell-based; settings: dose dependent
Source text: In vitro tube formation assay.

[3] = tested on: subretinal neovascularization (SNV) in vldlr-/- retina; experiment: SNV in vldlr-/- knockout mice assay; format: in vivo; settings: antibody injection
Method: SNV in vldlr−/− knockout mice assay. […] Experiments were carried out in very-low-density lipoprotein receptor (vldr) knockout mice to determine the effect of APX3330 on inhibition of SNV development in the vldlr−/− mutant. Each animal received a single intravitreal injection of 1 μl volume of BSS as a vehicle control and the fellow eye received 1 μl of […] APX3330. The final concentration of APX3330 was equivalent to approximately 20 μM in the retina. Quantitative measurement of SNV was carried out one week after the treatment in the whole mount retina after lectin-FITC staining. […] The apparent increase of SNV after antibody injection could be due to foreign protein triggered immune response which has been reported before (Tator et al., 2008). APX3330 reduced the number of SNV at a statistically significant level (p<0.01 in paired t-test). […] The Ape1/Ref-1 inhibitor offers a new approach to control angiogenesis for advanced macular degeneration (AMD) treatment.

CCC/C(=C\C1=C(OC)C(=O)c2ccccc2C1=O)C(=O)NOC [APX2014]
IC50 (T24 cells): 6.5 µM | IC50 (UC3 cells): 4.6 µM | fold lower IC50 than APX3330 [1]: 11 fold | BrdU-positive cells (bladder cancer cells): 7.2%±0.49 | caspase-3/7 activation (UC3 and T24 cells): dose-dependent increase in caspase activation | cellular proliferation when combined with cisplatin [2]: further reduction in cellular proliferation | relative sensitivity of RP-B-01 cells in 3D culture (RP-B-01 spheroids): significantly more sensitive to APX2014 than APX2009 | potency in RP-B-02 cells in 3D culture relative to APX3330 (RP-B-02 spheroids): more potent in the RP-B-02 cells than parent compound APX3330 | NFκB transcriptional activity (NFκB): reduced the transcriptional activity of NFκB and STAT3 | STAT3 transcriptional activity (STAT3): reduced the transcriptional activity of NFκB and STAT3 | expression of c-Myc, Bcl-2, Bcl-XL (survivin and Cyclin D1): No change in expression | expression of survivin and Cyclin D1 (survivin and Cyclin D1): significantly down-regulated

N.N.[Cl][Pt][Cl] [cisplatin]
resistance of RP-B-01 relative to RP-B-02 cells (RP-B-01 cells): at least 3 fold | IC50 (RP-B-01 cells; RP-B-01 cells, 72 h): 1.44 µM | IC50 (RP-B-02 cells): 0.5 µM

AVASTIN®: VEGF antibody [reference compound]
formation of blood-vessel-like tubules (endothelial cells): prevented formation of blood-vessel-like tubules | inhibition to the number of SNV [3]: neither AVASTIN® (VEGF antibody) nor bFGF antibody treatment showed any sign of inhibition
